Assay [1] relates to primary neuron and glia cells. Kind of assay: LDH release from glutamate challenged primary neuron and glia cells. The class given is cell-based. On the procedure: FIGS. 36A-B show rescue of glutamate challenged primary neuron and glia cells as measured by LDH release. Studies with glutamate challenged primary neuron and glial cells show efficacy of GC-MP/MP and GCMP at high concentrations and GC-MP/MP at low concentrations (FIG. 36A). MPHS is beneficial at lower concentrations. LDH release from glutamate challenged (100 umol) primary neuron and glial cells treated with GC, GC-MP, GC-MP/MP (all 1 mg/ml) and MPHS (250 ug/ml) (FIG. 36B).
For orientation: LDH leaks from cells whose membrane has failed.

For assay [2], the system named is PC12 cell. Nature of the assay: H2O2-induced PC12 cell injury model, apoptosis (Example 1). Type of assay: cell-based.

Each structure is given as a SMILES string.

As to `C[C@H]1C[C@@H]2[C@H]([C@@H](O)C[C@@]3(C)[C@H]2CC[C@]3(O)C(=O)COC(=O)CCC(=O)O)[C@@]2(C)C=CC(=O)C=C12` [MPHS, methylprednisolone hemisuccinate], the “rescue of glutamate challenged cells, LDH release” value in assay [1] (16 hours, GC, GC-MP, GC-MP/MP 1 mg/ml, MPHS 250 ug/ml, glutamate 100 umol) is reported as “not significant”. For the same molecule, in assay [1] (FIG. 36A), the “rescue of glutamate challenged cells at low concentrations” value was “beneficial”. Regarding `COc1cc(/C=C/C(=O)CC(=O)/C=C/c2ccc(O)c(OC)c2)ccc1O` [curcumin], the reducing cell apoptosis result in assay [2] is listed as “effective in reducing cell apoptosis”.

The record behind these values is patent publication US20150196668A1, “NANOMEDICINES FOR EARLY NERVE REPAIR” (Purdue Research Foundation, priority 2011, published 2015).
